From the supplement of paper PMC10307832

How the values were obtained:
Test in all cases: relative viability (nuclei count vs DMSO), 5 days (fraction); higher = more cells survive
[1] = compound: CN[C@@H]1C[C@H]2O[C@@](C)([C@@H]1OC)n1c3ccccc3c3c4c(c5c6ccccc6n2c5c31)C(=O)NC4 [Staurosporine] + C[C@]1(O)C[C@@H](c2nc(-c3ccc4ccc(-c5ccccc5)nc4c3)c3c(N)nccn32)C1 [Linsitinib] (partner 1 µM)
How it was run: (§1)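 A single step with final 0.05% Triton X-100, 1% formaldehyde and 1 ug/ml Hoechst fixed the cells and stained nuclei 5 days after treatment. Lung cancer cell lines in 1536-well plates had been treated by pin tool the day after seeding with one drug alone or a fixed anchor-drug dose plus five library-drug doses (not always all listed) in √10 steps, and nuclei were counted on 4× images. Relative viability is the ratio of nuclei in treated wells to nuclei in vehicle wells, taken as the median of duplicate plates.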

Sulindac + Lapatinib = compound: CC1=C(CC(=O)O)c2cc(F)ccc2/C1=C\c1ccc([S+](C)[O-])cc1 [Sulindac] + CS(=O)(=O)CCNCc1ccc(-c2ccc3ncnc(Nc4ccc(OCc5cccc(F)c5)c(Cl)c4)c3c2)o1 [Lapatinib] (partner 2 µM)
How it was run: as §1

[2] = compound: CN[C@@H]1C[C@H]2O[C@@](C)([C@@H]1OC)n1c3ccccc3c3c4c(c5c6ccccc6n2c5c31)C(=O)NC4 [Staurosporine] + CC(C)C[C@H](NC(=O)[C@H](Cc1ccccc1)NC(=O)c1cnccn1)B(O)O [Bortezomib] (partner 0.002 µM)
How it was run: as §1

Sulindac + Navitoclax = compound: CC1=C(CC(=O)O)c2cc(F)ccc2/C1=C\c1ccc([S+](C)[O-])cc1 [Sulindac] + CC1(C)CCC(c2ccc(Cl)cc2)=C(CN2CCN(c3ccc(C(=O)NS(=O)(=O)c4ccc(N[C@H](CCN5CCOCC5)CSc5ccccc5)c(S(=O)(=O)C(F)(F)F)c4)cc3)CC2)C1 [Navitoclax] (partner 0.5 µM)
How it was run: as §1

| Cell Line | relative viability ([1]; first compound 0.005 µM) | relative viability ([1]; first compound 0.01581 µM) | relative viability ([1]; first compound 0.05 µM) | relative viability ([1]; first compound 0.1581 µM) | relative viability ([1]; first compound 0.5 µM) | relative viability (Sulindac + Lapatinib; first compound 0.08 µM) | relative viability (Sulindac + Lapatinib; first compound 0.253 µM) | relative viability (Sulindac + Lapatinib; first compound 0.8 µM) | relative viability (Sulindac + Lapatinib; first compound 2.53 µM) | relative viability (Sulindac + Lapatinib; first compound 8 µM) | relative viability ([2]; first compound 0.005 µM) | relative viability ([2]; first compound 0.01581 µM) | relative viability ([2]; first compound 0.05 µM) | relative viability ([2]; first compound 0.1581 µM) | relative viability ([2]; first compound 0.5 µM) | relative viability (Sulindac + Navitoclax; first compound 0.08 µM) | relative viability (Sulindac + Navitoclax; first compound 0.253 µM) | relative viability (Sulindac + Navitoclax; first compound 0.8 µM) | relative viability (Sulindac + Navitoclax; first compound 2.53 µM) | relative viability (Sulindac + Navitoclax; first compound 8 µM) |
| --- | --- | --- | --- | --- | --- | --- | --- | --- | --- | --- | --- | --- | --- | --- | --- | --- | --- | --- | --- | --- |
| NCI-H650 | 0.472 | 0.289 | 0.249 | 0.197 | 0.177 | 1.08 | 0.977 | 0.598 | 0.767 | 1.07 | 0.504 | 0.283 | 0.315 | 0.212 | 0.206 | – | – | – | – | – |
| SK-MES-1 | 0.836 | 0.403 | 0.318 | 0.267 | 0.153 | 0.517 | 0.497 | 0.362 | 0.372 | 0.486 | – | – | – | – | – | 1.43 | 1.3 | 1.31 | 1.27 | 1.45 |
| NCI-H1793 | 0.879 | 0.558 | 0.582 | 0.465 | 0.209 | 0.731 | 0.778 | 0.533 | 0.795 | 0.787 | – | – | – | – | – | 0.341 | 0.396 | 0.364 | 0.458 | 0.473 |
| A549 | 0.366 | 0.227 | 0.0839 | 0.0873 | 0.0598 | 1.12 | 0.975 | 0.995 | 1.04 | 1.22 | – | – | – | – | – | 1.63 | 1.29 | – | 1.21 | 1.46 |
| LCLC-103H | 1.25 | 0.717 | 0.352 | 0.206 | 0.212 | – | – | – | – | – | 1.03 | 0.613 | 0.364 | 0.274 | 0.251 | – | – | – | – | – |
| NCI-H358 | 0.573 | 0.281 | 0.189 | 0.152 | 0.122 | 0.457 | 0.439 | 0.474 | 0.44 | 0.564 | – | – | – | – | – | – | – | – | – | – |
